Consider `COC(=O)c1cc2c(s1)[C@@H](N1CCCCC1=O)[C@H](O)C(C)(C)O2` (relative stereo), for which the melting point fell in the range of 104 to 106 °C.
Under `COCCN1C(=O)CCCc2c1ccc(Nc1ncc(Cl)c(Nc3ccc(N4CCOCC4)cc3OC)n1)c2OC` stands 136 to 138 °C.
`Cn1c2c(c3ccccc31)C(=O)C(CNC1=NCCN1)CS2` (centres undefined) had a melting point of 245 to 247 °C.
Consider `O=C(O)CCCC1C(=O)Nc2ccccc21` (centres undefined), for which the melting point fell in the range of 79 to 80 °C.
Take `COCOCCCOn1cnc2cnc(NC=O)nc21`: the melting point lay in the range of 115 to 116 °C.
Molecule `CCc1cccc(C)c1C(=O)N[C@@H](Cc1ccc(-c2c(C)n(C)c(=O)n(C)c2=O)cc1)C(=O)O` returned a melting point of 127 to 133 °C.
On to `CCOC(=O)CN(SN(C)C(=O)Oc1cccc2c1OC(C)(C)C2)c1ccccc1`, for which the melting point was in the range of 92 to 93 °C.
The value for `COC(=O)C(OC)C(=S)Nc1cc(Cl)cc(Cl)c1` (centres undefined) was 144 to 147 °C; that for `Clc1cc(Br)c2c(c1)COCO2` was 108 to 110 °C.
`COC(=O)CCC#Cc1cc(F)c(Cl)cc1N` came in with a melting point of 67 to 68 °C.
`Cc1cc(I)ccc1-c1cccc(C(N)=O)c1` returned a melting point of 138 to 141 °C.
Molecule `CN(C)N1C(=O)C(=Cc2nc(C(C)(C)C)c(O)c(C(C)(C)C)n2)SC1=S` displayed a melting point of 100 to 105 °C.
In the case of `CCCn1c(COCC)nc2c(N)nc3ccc(OC4CCN(C(=O)OC(C)(C)C)CC4)cc3c21`, the melting point lay within 180 to 181 °C.
`CCCc1ccc(S(=O)(=O)Nc2ccc3ncncc3c2)cc1` had a melting point of 202 to 203 °C.
Under `COc1ccc(N2Cc3cnc(Nc4ccc(F)cc4)nc3N([C@@H](C)CO)C2=O)c(F)c1` stands 173 to 177 °C; under `COc1cccc(-c2ccc(C3C(CCC(O)c4ccc(F)cc4)C(=O)N3c3ccc(F)cc3)cc2)c1OC` (centres undefined), 101 °C; under `FC(F)(F)c1snc(-c2c(Cl)cc(Cl)c3nc(C4CC4)oc23)c1Cl`, 110 to 111 °C.
In turn, `CCN(CC)C(=CC1=NCCCC1)c1ccccc1` had a melting point of 169 to 170 °C.
In turn, `O=C(CCBr)NCC(=O)c1ccccc1` gave a melting point of 114 °C.
The molecule `CC(=O)Oc1ccc(C2COc3cc(OC(C)=O)cc(C)c3C2=O)cc1` (centres undefined) gave a melting point of 143 to 145 °C.
As for `CC(C)CCCC(C)C1CCC2C3=C(CCC21C)C1(C)CCC(O)C(C)(C)C1CC3` (centres undefined), the melting point fell in the range of 154 to 155 °C.
With `CC#CCOc1cc(Cc2c(F)cccc2F)ncn1`, the melting point came out at 57.6 °C.
On to `CC(=O)N1c2ccccc2C[C@H]1C(N)=O`, for which the melting point was over 260 °C.
With `CC(C)C(C(N)=S)N(C)C(=O)OCc1ccccc1` (centres undefined), the melting point worked out at 130 °C.
For `COc1ccc(C(=O)Nc2ccccc2)cc1NC(=S)Nc1ccc(C)cc1`, the melting point was in the range of 156 to 158 °C.
`CC(C)N1C(=O)NC(c2ccc3c(c2)CCO3)c2cc3c(cc21)OCO3` (centres undefined) yielded a melting point of 183 to 185 °C.
Turning to `CCN(CC)CCCCC(=O)c1cc(Cl)c(N)cc1OCc1cc(OC)cc(OC)c1`, the melting point lay within 105 to 107 °C.
`CCCCC(CC)CN(CCC)c1ccc(C2=C(C#N)C(=C(C#N)C#N)NC2=O)cc1` (centres undefined) gave a melting point of 189 °C.
For the molecule `Cc1nc(-c2ccccc2)cc(-c2cccc([N+](=O)[O-])c2)c1C(=O)NCCN(C)C`, the melting point is 143 to 145 °C.
Molecule `COc1cc(Br)c2nc(-c3ccc(OC)c(F)c3)cc(O)c2c1` returned a melting point of 200 to 201 °C.
`COc1ccc(COc2ccc(N)cc2)cc1`: the melting point lay within 118 to 120 °C.
Under `CC(C)(C)OC(=O)N1CCC(Oc2ccc(-c3ccc(=O)[nH]n3)c(F)c2)CC1` stands 117 to 119 °C; under `CC(C)c1ccc(S(=O)(=O)n2c(CCC(=O)O)cc3cc(Cl)ccc32)cc1`, 150 to 154 °C; under `CNC(=O)c1cnc2cccc(C)n2c1=O`, 208 to 210 °C.
As for `COC(=NS(=O)(=O)c1ccccc1Cl)Nc1nc(C)nc(OC)n1`, the melting point fell in the range of 156 to 157 °C.
In turn, `O=C(OCc1ccccc1)C(C(=O)OCc1ccccc1)n1cccc1C(=O)C(Cl)(Cl)Cl` yielded a melting point of 74 to 76 °C.
Molecule `C=CC[C@@](O)(C(=O)O)c1ccccc1` yielded a melting point of 132 °C.
`N=C(N)Nc1nc(C(=O)NCCCC(CC(=O)O)c2ccccc2)cs1` (racemic): the melting point was 230 °C.
As for `CC#CCOc1ccc(S(=O)(=O)N(C)C(C(=O)NO)C(C)(C)SCCN2CCCC2)cc1` (centres undefined), the melting point lay in the range of 55 to 57 °C.
`CCOC(=O)c1sc2[nH]c(=O)ccc2c1Br` returned a melting point of 262 to 268 °C.
In turn, `CC(=O)c1cc(Br)c(OCCCBr)c(Br)c1` displayed a melting point of 87 to 88 °C.
As for `NNc1ccnc2c(NC(=O)c3c(Cl)cccc3Cl)cccc12`, the melting point was in the range of 204 to 206 °C.
Molecule `CCCCCCC1(CCCCCC)c2ccccc2-c2ccccc21` showed a melting point of 31 to 33 °C.
The molecule `CC(=O)N(C)N(C)c1ccc(CCn2cnc3cc(-c4ccc(Cl)cc4)sc3c2=O)cc1` returned a melting point of 227 to 228 °C.
Consider `COc1cc2ncnc(N3CCN(C(=S)NCc4ccc([N+](=O)[O-])cc4)CC3)c2cc1OC`, for which the melting point lay in the range of 214 to 216 °C.
In turn, `Cc1cc2cc(C3CCN(C(=O)C4CC4)CC3)oc2cc1C` displayed a melting point of 80 to 83 °C.
In the case of `COc1cc(-c2nc(N)sc2SCC2CCCC2)c(OC)cc1C`, the melting point is 88 to 89 °C.
The value for `CO/N=C(/C)c1cccc(NC(=O)NCC(=O)N(CC(=O)N(C)c2ccccc2)c2ccccc2)c1` was 165 °C; that for `CC12CCC3c4ccc(C(=O)O)cc4CCC3C1CCC2C(=O)Cc1ccccc1` (centres undefined) was 146 to 150 °C.
Take `CCOC(=NC(=O)c1cc(C(F)(F)F)cc(C(F)(F)F)c1)N1Cc2ccccc2-c2ccccc2C1`: the melting point was in the range of 129 to 130 °C.
The value for `COc1ccc(-c2nc(-c3ccc4c(c3)N(C)C(=O)CS4)cs2)cc1OC` was 144 °C; that for `CCOC(=O)c1ccc(CCN2CCN(S(=O)(=O)c3ccccc3)CC2)cc1` was 156 to 157 °C.
In turn, `CC(=O)SC(CC(=O)c1ccc(Cl)cc1)C(=O)O` (centres undefined) had a melting point of 68 to 69 °C.
In the case of `O=C(CC(C[N+](=O)[O-])c1ccccc1)c1ccc(O)cc1` (centres undefined), the melting point lay within 112 to 113 °C.
`O=C(O)COc1cc2c(c(Cl)c1Cl)C(=O)c1ccccc1-2` gave a melting point of 305 to 306 °C.
On to `COc1cc2c(cc1OCc1ccccc1)C(C#N)(Sc1ccccc1)C2` (centres undefined), for which the melting point fell in the range of 109 to 110 °C.
`COc1ccc(CCN2CCC(C3c4ccn(C)c4C=Cn4ncnc43)CC2)cc1` (centres undefined): the melting point was 140 °C.
`CC(C)N(C(=O)n1oc(=O)[nH]c1=O)c1ccccc1` registered a melting point of 116 to 117 °C.
`C=C(C)COc1cc(C)c(NC(C)=O)cc1C` showed a melting point of 128 to 132 °C.
Under `CCOP(=O)(CC(=O)Nc1cc2c(Nc3ccc(F)c(Br)c3)ncnc2cn1)OCC` stands 214 to 217 °C; under `CCCCc1ccc(-c2ccc(CCc3ccc(Cl)cc3)cc2)c(F)c1`, 49 °C; under `CC(O)(CCF)c1ccc(-c2ccc(F)cc2)cc1` (centres undefined), 90 to 92 °C.
The molecule `O[C@@H]1CN=C(c2ccccc2F)O[C@H]1c1ccccc1` (racemic) returned a melting point of 142 °C.
`Clc1cccc(C(c2ccccc2)(c2ccccc2)n2ccnc2)c1` yielded a melting point of 101 °C.

These data come from a melting point compilation (Tetko et al.; mined from patent text by program, amines drawn as free bases though some values may be those of a salt).
